The supplement of paper PMC4862054

Tests used:
Conditions in all cases: incubation time: 72 h
[1] = test system: HCC1143; experiment: normalised viability (% of control), CellTiter-Blue; higher = more viable cells (about 100 = DMSO control)
Method in brief: (§1)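 Each entry is normalised viability at a single listed concentration within a series. It comes from breast cancer cell lines incubated 72 h with compound in 384-well plates, then measured with CellTiter-Blue fluorescence at 560/590 nm. Every plate was normalised between vehicle (100) and a positive kill control (0).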

[2] = test system: DU-4475; experiment: as above
Method in brief: as §1

[3] = test system: MDA-MB-436; experiment: as above
Method in brief: as §1

[4] = test system: SK-BR-3; experiment: as above
Method in brief: as §1

[5] = test system: MDA-MB-453; experiment: as above
Method in brief: as §1

[6] = test system: CAL-120; experiment: as above
Method in brief: as §1

[7] = test system: Hs578T; experiment: as above
Method in brief: as §1

[8] = test system: CAL-148; experiment: as above
Method in brief: as §1

[9] = test system: MDA-MB-231; experiment: as above
Method in brief: as §1

[10] = test system: BT-474; experiment: as above
Method in brief: as §1

[11] = test system: BT-549; experiment: as above
Method in brief: as §1

[12] = test system: DU-4475; experiment: drug sensitivity score (DSS), CellTiter-Blue viability (DSS (AUC-based score)); higher = stronger viability inhibition; extreme values may be limits of the assay
Method in brief: (§2)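 A 72 h incubation followed seeding of breast cancer cell lines (20 µl suspension) into 384-well plates holding compound in a 5- or 9-concentration series. CellTiter-Blue, 2.5 µl per well, was incubated 2 h at 37 °C, and fluorescence was measured at 560/590 nm. Normalisation on every plate used 0.1 % DMSO and a positive kill control. From the fitted dose-response curve, the area under the curve was taken as the drug sensitivity score.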

[13] = test system: MDA-MB-436; experiment: as above
Method in brief: as §2

[14] = test system: SK-BR-3; experiment: as above
Method in brief: as §2

[15] = test system: CAL-148; experiment: as above
Method in brief: as §2

[16] = test system: BT-474; experiment: as above
Method in brief: as §2

[17] = test system: BT-549; experiment: as above
Method in brief: as §2

[18] = test system: CAL-51; experiment: as above
Method in brief: as §2

[19] = test system: MFM-223; experiment: as above
Method in brief: as §2

Clc1ccc(Nc2nnc(Cc3ccncc3)c3ccccc23)cc1 [Vatalanib]
normalised viability [%]
Conditions	3 nM	10 nM	30 nM	100 nM	1000 nM	10000 nM
[1]	–	80.5	–	–	87.2	79.6
[2]	98.2	–	100	99	–	–
[3]	–	106	–	–	97.5	85.2
[4]	–	95.2	–	–	101	86.9
[5]	107	–	112	112	–	–
[6]	–	82.2	–	–	89.7	82.6
[7]	–	115	–	–	104	84.7
[8]	76.1	–	83.6	82.2	–	–
[9]	–	90.1	–	–	90.8	85.1
[10]	–	95.8	–	–	96	73.1
[11]	–	87.3	–	–	88.2	85.9

Conditions	drug sensitivity score
[12]	0
[13]	0
[14]	0
[15]	0
[16]	0
[17]	0
[18]	0
[19]	0

C[C@]12CC[C@@H]3c4ccc(O)cc4C[C@@H](CCCCCCCCC[S+]([O-])CCCC(F)(F)C(F)(F)F)[C@H]3[C@@H]1CC[C@@H]2O (stereo partly specified) [Fulvestrant]
normalised viability [%]
Conditions	3 nM	10 nM	30 nM	100 nM	1000 nM	10000 nM
[1]	–	76.6	–	–	81.5	78.1
[2]	91.6	–	78	91.5	–	–
[3]	–	94.4	–	–	97.5	90.6
[4]	–	76.9	–	–	109	84.5
[5]	108	–	81.1	93.7	–	–
[6]	–	79.2	–	–	90.7	87.6
[7]	–	103	–	–	91.7	86.2
[8]	89	–	87.5	87.3	–	–
[9]	–	105	–	–	99.7	90.2
[10]	–	94.7	–	–	88.4	107
[11]	–	74.7	–	–	86.5	74.8

Conditions	drug sensitivity score
[12]	0
[13]	0
[14]	0
[15]	0
[16]	0
[17]	0
[18]	0
[19]	1.05

CN[C@@H]1C[C@H]2O[C@@](C)([C@@H]1OC)n1c3ccccc3c3c4c(c5c6ccccc6n2c5c31)C(=O)N[C@H]4O [UCN-01]
normalised viability [%]
Conditions	3 nM	10 nM	30 nM	100 nM	1000 nM	10000 nM
[1]	–	77.7	–	–	20.6	20.4
[2]	109	–	81.5	78.3	–	–
[3]	–	110	–	–	47.8	12.8
[4]	–	101	–	–	16.5	3.68
[5]	98	–	86.8	65	–	–
[6]	–	72.8	–	–	17.7	9.93
[7]	–	88.3	–	–	7.74	0.41
[8]	92.2	–	105	106	–	–
[9]	–	93.7	–	–	17.2	0.84
[10]	–	108	–	–	44.2	2.62
[11]	–	91.4	–	–	11.8	0.77

Conditions	drug sensitivity score
[12]	19.5
[13]	12.4
[14]	23
[15]	7
[16]	12.2
[17]	22.4
[18]	20.4
[19]	14.7

O=P1(NCCCl)OCCCN1CCCl (stereo unspecified) [Ifosfamide]
normalised viability [%]
Conditions	3 nM	10 nM	30 nM	100 nM	1000 nM	10000 nM
[1]	–	80.1	–	–	82.4	91.1
[2]	88.5	–	101	81.9	–	–
[3]	–	96.6	–	–	109	102
[4]	–	109	–	–	117	97.8
[5]	132	–	87.3	106	–	–
[6]	–	88.7	–	–	99.3	85.2
[7]	–	102	–	–	102	115
[8]	89.8	–	92	93	–	–
[9]	–	101	–	–	97.3	109
[10]	–	114	–	–	112	120
[11]	–	79.4	–	–	90.8	96.7

Conditions	drug sensitivity score
[12]	0
[13]	0
[14]	0
[15]	0
[16]	0
[17]	0
[18]	0
[19]	0

NCC(=O)CCC(=O)O [Aminolevulinic acid]
normalised viability [%]
Conditions	3 nM	10 nM	30 nM	100 nM	1000 nM	10000 nM
[1]	–	81.1	–	–	82.6	85.2
[2]	104	–	77.5	110	–	–
[3]	–	99.1	–	–	102	96.5
[4]	–	96.3	–	–	108	101
[5]	110	–	93.5	90.2	–	–
[6]	–	89.6	–	–	103	104
[7]	–	108	–	–	104	96.3
[8]	93.8	–	101	98.8	–	–
[9]	–	107	–	–	93.2	111
[10]	–	115	–	–	119	131
[11]	–	85.6	–	–	84.1	90

Conditions	drug sensitivity score
[12]	0
[13]	0
[14]	0
[15]	0
[16]	0
[17]	0
[18]	0
[19]	0

Cn1c(CCCC(=O)O)nc2cc(N(CCCl)CCCl)ccc21 [Bendamustine]
normalised viability [%]
Conditions	3 nM	10 nM	30 nM	100 nM	1000 nM	10000 nM
[1]	–	107	–	–	104	97.8
[2]	90	–	102	101	–	–
[3]	–	94.7	–	–	70.4	116
[4]	–	108	–	–	109	85
[5]	125	–	108	106	–	–
[6]	–	89.5	–	–	86.7	93.4
[7]	–	110	–	–	127	97.7
[8]	99.8	–	112	106	–	–
[9]	–	102	–	–	96.1	91
[10]	–	127	–	–	120	105
[11]	–	107	–	–	101	101

Conditions	drug sensitivity score
[12]	0
[13]	0
[14]	0.0662
[15]	0
[16]	0
[17]	0
[18]	0
[19]	0
